Results: article PMC12274739, “Differential substrate degradation by super-degron: EGFP in wild-type mouse cells, PD-1 requires CRBN humanization” (iScience, 2025)
Where two headings read alike, the source gives them in different places.

Tests used:
mouse PD-1-SD = assay: Linker evaluation of mouse PD-1-SD in Jurkat cells; assay type: cell-based, human; details: PD-1-SD with a linker, 1 µM iberdomide for 1 day
Source text: We used human Jurkat cells as it was difficult to accurately assess exogenous PD-1 expression, as EL4 cells originally expressed mouse PD-1. […] Therefore, the simplest “no linker” construct was adopted for in vivo protein knockdown in mice. Considering that fluorescent proteins affect the degradation efficiency of PD-1,[31] we decided to knock in without a fluorescent protein as a marker. SD was inserted downstream of the endogenous Pdcd1 gene (the gene encoding PD-1) in Crbn^I391V/I391V mice using genome editing (Figures 6A and S5), and double homozygous (Pdcd1^SD/SD/Crbn^I391V/I391V) mice were produced by intercrossing.
Figure S4 Evaluation of linker sequences between PD-1 and super degron tag A Amino acid sequences of various linkers between PD-1 and super degron (SD) tag. Sequences […]
were measured by flow cytometry, and the geometric means of fluorescence intensities (MFI) were calculated. The dots indicate the results of the experiment for each of the three samples.
(1 picture or pasted object on this page, not shown here)

[1] = set-up: method as in PMID 31125896; details: BALB/c mice, oral; cited from earlier work
[2] = tested on: CD8+ and CD4+ T cells infiltrating the MC-38 microenvironment; assay: Markers on T cells from MC-38 tumor microenvironment, flow cytometry day 9; assay type: in vivo, mouse
Method: (§1) Data are represented as mean ± standard error (SEM). The same experiment was repeated twice to confirm reproducibility. p-values were determined by two-way ANOVA multiple comparisons. ∗∗∗∗p < 0.0001 and ∗p = 0.0267. […] Data are represented as mean ± SEM. The same experiment was repeated twice to confirm reproducibility. p-values were determined by two-way ANOVA multiple comparisons. ∗∗∗∗p < 0.0001, ∗∗∗p = 0.0005, ∗∗p = 0.0067. […] Ratio of PD-1 positive cells and mean fluorescence intensity (MFI) of PD-1 (D), TIM-3 (E), and LAG-3 (F) on CD8^+ and CD4^+ T cells isolated from tumor microenvironments 9 days after the initiation of treatment are shown. Fluorescence intensity of each molecule was measured by flow cytometry, and the geometric MIFs of marker-positive cells were calculated. The data in two experiments were compiled. p-values were determined by the Brown-Forsythe and Welch ANOVA test. Different letters indicate statistically significant differences between groups (p < 0.05). Boxplots: hinges, 25th and 75th percentiles; middle line, median; whiskers, minimum to maximum value.
(§2) Next, the effects of SD-induced PD-1 reduction were compared with those of anti-PD-1 antibody treatment in vivo. […] CD3^+ T cells infiltrating the MC-38 microenvironment were analyzed on day 9 of treatment before the MC-38 tumor masses had shrunk with treatment and no longer provided sufficient T cells for FACS analyses.
Subsequently, we analyzed the proportion of exhaustion and activation marker-positive cells in each experimental group, as well as the expression levels of each marker in the marker-positive cells.
P-values were determined by one-way ANOVA with Tukey’s multiple comparisons. IBR: IBR-treated.
Samples are the same as Figure 7D. CrbnI391V/I391V mice were used for the experiments. Only PD-1 genotypes were shown in D. Pdcd1+/+/CrbnI391V/I391V control Ab: n = 11, Pdcd1+/+/CrbnI391V/I391V […]
E Expression analyses of PD-1, TIM-3, LAG-3, TIGIT and CX3CR1 on T cells by flow cytometry.
Cells in microenvironments were sorted by indicated gates. Dotted lines indicate isotype control. […]
PD-1 treatment. […] Different letters indicate statistically significant differences between groups (p < 0.05). Box plots: hinges, 25th and 75th percentiles; middle line, median; whiskers, minimum to maximum value.

[3] = tested on: MC-38 adenocarcinoma cells; assay: Growth of inoculated MC-38 adenocarcinoma cells in mice; assay type: in vivo, mouse
Method: as §1, with “Boxplots: hinges, 25th and 75th percentiles; middle line, median; whiskers, minimum to maximum value.” left out
as §2, with “analyses. […]” for “analyses.”

EGFP-SD (C-terminal SD) [4] = target: EGFP-SD (C-terminal SD) (Aequorea victoria, UniProt P42212, F64L/H231L/S65T); assay type: cell-based, mouse; details: transient, 24 h; for DC50: read-out: DC50, EGFP-SD
EGFP-SD (C-terminal SD) [5] = assay type: cell-based, mouse; details: Crbn+/I391V mESCs (h/mCRBN), transient, 24 h

O=C1CC[C@H](N2Cc3c(OCc4ccc(CN5CCOCC5)cc4)cccc3C2=O)C(=O)N1 [IBR, iberdomide]
PD-1 expression (mouse PD-1-SD): significantly reduced
half-life (T1/2) [1]: 54 min
time of serum concentration peak [1]: 0.14 h
TIM-3 in CD8+ T cells vs untreated ([2]; IBR: Pdcd1SD/SD/CrbnI391V/I391V, cell ratio and expression level, antibody: Pdcd1+/+/CrbnI391V/I391V, expression level): decreased
CX3CR1 in CD8+ T cells vs untreated ([2]; IBR: Pdcd1SD/SD/CrbnI391V/I391V, antibody: Pdcd1+/+/CrbnI391V/I391V, CX3CR1+ cell ratio): comparable between IBR-treated and untreated groups
LAG-3 and TIGIT in CD8+ T cells vs untreated ([2]; IBR: Pdcd1SD/SD/CrbnI391V/I391V, antibody: Pdcd1+/+/CrbnI391V/I391V, expression level): remained comparable
LAG-3 expression levels in CD4+ T cells ([2]; Pdcd1SD/SD/CrbnI391V/I391V): higher than those in the untreated group
PD-1 expression level in PD-1+ CD8+ T cells vs untreated ([2]; Pdcd1SD/SD/CrbnI391V/I391V, day 9): significant reduction
frequency / number of T cells infiltrating the MC-38 microenvironment ([2]; day 9 of treatment): did not differ
MC-38 cell proliferation ([3]; Pdcd1+/+/CrbnI391V/I391V mice): comparable
growth of MC-38 cells ([3]; Pdcd1SD/SD/CrbnI391V/I391V mice, oral administration of IBR): suppressed proliferation for the entire period
Bottom, EGFP-SD (EGFP/mCherry MFI) (EGFP-SD (C-terminal SD) [4]; B6J-S1 mESCs): 0.03557
bottom vs top, EGFP-SD (EGFP-SD (C-terminal SD) [4]; B6J-S1 mESCs): 0.10
Bottom, EGFP-SD (EGFP/mCherry MFI) (EGFP-SD (C-terminal SD) [4]; Crbn+/+ mESCs (mCRBN)): 0.04584
bottom vs top, EGFP-SD (EGFP-SD (C-terminal SD) [4]; Crbn+/+ mESCs (mCRBN)): 0.15
Bottom, EGFP-SD (EGFP/mCherry MFI) (EGFP-SD (C-terminal SD) [4]; CrbnI391V/I391V mESCs (hCRBN)): 0.007275
bottom vs top, EGFP-SD (EGFP-SD (C-terminal SD) [4]; CrbnI391V/I391V mESCs (hCRBN)): 0.03
DC50 (EGFP-SD (C-terminal SD) [4]; B6J-S1 mESCs): 0.815 nM
DC50 (EGFP-SD (C-terminal SD) [4]; Crbn+/+ mESCs (mCRBN)): 2.17 nM
DC50 (EGFP-SD (C-terminal SD) [4]; CrbnI391V/I391V mESCs (hCRBN)): 0.0654 nM
Bottom, EGFP-SD (EGFP/mCherry MFI) (EGFP-SD (C-terminal SD) [5]): 0.01502
DC50 (EGFP-SD (C-terminal SD) [5]): 0.0707 nM
bottom vs top, EGFP-SD (EGFP-SD (C-terminal SD) [5]): 0.04
